According to PubChem BioAssay AID1963825 (Molecular Pharmacology Branch, DTP, NCI, 2024):

Assay: Anticancer human tumor 997537-175-T-J1-PDC patient-derived colon adenocarcinoma cell line growth inhibition [POLQ]
Details: 997537-175-T-J1-PDC complex spheroid viability, combination with POLQ inhibitors; for IC50: curve of first compound; for viability, T/C: stronger effect = lower value
Summary of the method: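 Complex spheroid viability model combining PDC tumour cells with endothelial (HUVEC) and MSC stromal cells. Novobiocin, ART-558 or RP6685 were tested singly and in combination with standard and investigational anticancer drugs. Each was titrated in half-log steps from near clinical Cmax, or from 10 microM where Cmax was unknown.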
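Note: luminescence signal used as a surrogate for viable cells; spheroids exposed to drugs for seven days before readout.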

In the case of `CC[C@@]1(O)C(=O)OCc2c1cc1n(c2=O)Cc2cc3c(CN(C)C)c(O)ccc3nc2-1` + Cc1cccc(N(C)C(=O)C2C(O)CCN2c2nc(C)cc(C(F)(F)F)c2C#N)c1, the IC50 (second compound 0.0316 µM) is reported as > 100 nM, the IC50 (second compound 0.1 µM) is reported as > 100 nM and the IC50 (second compound 0.316 µM) is reported as > 100 nM. The IC50 (second compound 1 µM) was > 100 nM, the IC50 (second compound 3.16 µM) was > 100 nM and the IC50 (second compound 10 µM) was > 100 nM. It also gave a viability, T/C (second compound 0.0316 µM, first compound 0.000316 µM) of 108%, a viability, T/C (second compound 0.0316 µM, first compound 0.001 µM) of 102% and a viability, T/C (second compound 0.0316 µM, first compound 0.00316 µM) of 102%. It also gave a viability, T/C (second compound 0.0316 µM, first compound 0.01 µM) of 83.1%, a viability, T/C (second compound 0.0316 µM, first compound 0.0316 µM) of 87.9% and a viability, T/C (second compound 0.0316 µM, first compound 0.1 µM) of 71.3%. The viability, T/C (second compound 0.1 µM, first compound 0.000316 µM) was 94.9%, the viability, T/C (second compound 0.1 µM, first compound 0.001 µM) was 92.4% and the viability, T/C (second compound 0.1 µM, first compound 0.00316 µM) was 92.6%. The viability, T/C (second compound 0.1 µM, first compound 0.01 µM) was 105%, the viability, T/C (second compound 0.1 µM, first compound 0.0316 µM) was 96.2% and the viability, T/C (second compound 0.1 µM, first compound 0.1 µM) was 64.3%. For the same compound, the viability, T/C (second compound 0.316 µM, first compound 0.000316 µM) was 90%, the viability, T/C (second compound 0.316 µM, first compound 0.001 µM) was 100% and the viability, T/C (second compound 0.316 µM, first compound 0.00316 µM) was 107%. It also gave a viability, T/C (second compound 0.316 µM, first compound 0.01 µM) of 95.1%, a viability, T/C (second compound 0.316 µM, first compound 0.0316 µM) of 103% and a viability, T/C (second compound 0.316 µM, first compound 0.1 µM) of 73.7%. It also gave a viability, T/C (second compound 1 µM, first compound 0.000316 µM) of 108%, a viability, T/C (second compound 1 µM, first compound 0.001 µM) of 96.7% and a viability, T/C (second compound 1 µM, first compound 0.00316 µM) of 97.5%. The viability, T/C (second compound 1 µM, first compound 0.01 µM) was 111%, the viability, T/C (second compound 1 µM, first compound 0.0316 µM) was 83.1% and the viability, T/C (second compound 1 µM, first compound 0.1 µM) was 66.7%. The viability, T/C (second compound 3.16 µM, first compound 0.000316 µM) was 113%, the viability, T/C (second compound 3.16 µM, first compound 0.001 µM) was 101% and the viability, T/C (second compound 3.16 µM, first compound 0.00316 µM) was 101%. For the same compound, the viability, T/C (second compound 3.16 µM, first compound 0.01 µM) was 89.3%, the viability, T/C (second compound 3.16 µM, first compound 0.0316 µM) was 89.8% and the viability, T/C (second compound 3.16 µM, first compound 0.1 µM) was 72%. It also gave a viability, T/C (second compound 10 µM, first compound 0.000316 µM) of 98%, a viability, T/C (second compound 10 µM, first compound 0.001 µM) of 104% and a viability, T/C (second compound 10 µM, first compound 0.00316 µM) of 102%. It also gave a viability, T/C (second compound 10 µM, first compound 0.01 µM) of 97.3%, a viability, T/C (second compound 10 µM, first compound 0.0316 µM) of 82.5% and a viability, T/C (second compound 10 µM, first compound 0.1 µM) of 68.9%.
